Laboratory results reported in PubChem BioAssay (NCI).
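Cultured in 96-well plates, cells were exposed to test compound for 48 hours across five concentrations. Abbreviation: GI50, concentration required for 50% inhibition of growth. At the TGI there is no net growth.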

How the values were obtained:
Test in all cases: DTP human tumour cell line panel, 48 h
[1] = system: SNB-75 CNS
[2] = system: ACHN renal
[3] = system: RPMI-8226 leukemia
[4] = system: CAKI-1 renal
[5] = system: LOX IMVI melanoma
[6] = system: HT29 colon
[7] = system: RXF 393 renal
[8] = system: M14 melanoma
[9] = system: UACC-257 melanoma
[10] = system: NCI-H522 lung
[11] = system: SK-MEL-5 melanoma
[12] = system: U251 CNS
[13] = system: A549 NSCLC
[14] = system: COLO 205 colon
[15] = system: SK-MEL-28 melanoma
[16] = system: HCC-2998 colon
[17] = system: HL-60(TB) leukemia
[18] = system: SNB-19 CNS
[19] = system: SR leukemia
[20] = system: 786-0 renal
[21] = system: NCI/ADR-RES ovarian
[22] = system: SN12C renal
[23] = system: SK-MEL-2 melanoma
[24] = system: IGROV1 ovarian
[25] = system: MDA-MB-231 breast
[26] = system: T-47D breast
[27] = system: OVCAR-8 ovarian
[28] = system: BT-549 breast
[29] = system: SF-268 CNS
[30] = system: KM12 colon
[31] = system: NCI-H226 lung
[32] = system: HCT-15 colon
[33] = system: HS 578T breast
[34] = system: K-562 leukemia
[35] = system: MALME-3M melanoma
[36] = system: NCI-H23 lung
[37] = system: UO-31 renal
[38] = system: OVCAR-3 ovarian
[39] = system: MCF7 breast
[40] = system: HOP-62 NSCLC
[41] = system: UACC-62 melanoma
[42] = system: PC-3 prostate
[43] = system: HOP-92 NSCLC
[44] = system: HCT-116 colon
[45] = system: OVCAR-5 ovarian
[46] = system: OVCAR-4 ovarian
[47] = system: NCI-H460 lung
[48] = system: A498 renal
[49] = system: TK-10 renal
[50] = system: MOLT-4 leukemia
[51] = system: SF-295 CNS
[52] = system: MDA-MB-435
[53] = system: DU-145 prostate
[54] = system: EKVX NSCLC
[55] = system: SK-OV-3 ovarian
[56] = system: SF-539 CNS
[57] = system: CCRF-CEM leukemia
[58] = system: SW-620 colon

SMILES: CCOC(=O)/C=C1/SC(N2CCCCC2)C(=O)N1CC (configuration not stated)
- GI50 [1]: > 100 µM
- TGI [1]: > 100 µM
- GI50 [2]: > 100 µM
- TGI [2]: > 100 µM
- GI50 [3]: > 100 µM
- TGI [3]: > 100 µM
- GI50 [4]: > 100 µM
- TGI [4]: > 100 µM
- GI50 [5]: > 100 µM
- TGI [5]: > 100 µM
- GI50 [6]: > 100 µM
- TGI [6]: > 100 µM
- GI50 [7]: > 100 µM
- TGI [7]: > 100 µM
- GI50 [8]: > 100 µM
- TGI [8]: > 100 µM
- GI50 [9]: > 100 µM
- TGI [9]: > 100 µM
- GI50 [10]: > 100 µM
- TGI [10]: > 100 µM
- GI50 [11]: > 100 µM
- TGI [11]: > 100 µM
- GI50 [12]: > 100 µM
- TGI [12]: > 100 µM
- GI50 [13]: > 100 µM
- TGI [13]: > 100 µM
- GI50 [14]: > 100 µM
- TGI [14]: > 100 µM
- GI50 [15]: > 100 µM
- TGI [15]: > 100 µM
- GI50 [16]: > 100 µM
- TGI [16]: > 100 µM
- GI50 [17]: > 100 µM
- TGI [17]: > 100 µM
- GI50 [18]: > 100 µM
- TGI [18]: > 100 µM
- GI50 [19]: > 100 µM
- TGI [19]: > 100 µM
- GI50 [20]: > 100 µM
- TGI [20]: > 100 µM
- GI50 [21]: > 100 µM
- TGI [21]: > 100 µM
- GI50 [22]: > 100 µM
- TGI [22]: > 100 µM
- GI50 [23]: > 100 µM
- TGI [23]: > 100 µM
- GI50 [24]: > 100 µM
- TGI [24]: > 100 µM
- GI50 [25]: > 100 µM
- TGI [25]: > 100 µM
- GI50 [26]: > 100 µM
- TGI [26]: > 100 µM
- GI50 [27]: > 100 µM
- TGI [27]: > 100 µM
- GI50 [28]: > 100 µM
- TGI [28]: > 100 µM
- GI50 [29]: > 100 µM
- TGI [29]: > 100 µM
- GI50 [30]: > 100 µM
- TGI [30]: > 100 µM
- GI50 [31]: > 100 µM
- TGI [31]: > 100 µM
- GI50 [32]: > 100 µM
- TGI [32]: > 100 µM
- GI50 [33]: > 100 µM
- TGI [33]: > 100 µM
- GI50 [34]: > 100 µM
- TGI [34]: > 100 µM
- GI50 [35]: > 100 µM
- TGI [35]: > 100 µM
- GI50 [36]: > 100 µM
- TGI [36]: > 100 µM
- GI50 [37]: > 100 µM
- TGI [37]: > 100 µM
- GI50 [38]: > 100 µM
- TGI [38]: > 100 µM
- GI50 [39]: > 100 µM
- TGI [39]: > 100 µM
- GI50 [40]: > 100 µM
- TGI [40]: > 100 µM
- GI50 [41]: > 100 µM
- TGI [41]: > 100 µM
- GI50 [42]: > 100 µM
- TGI [42]: > 100 µM
- GI50 [43]: > 100 µM
- TGI [43]: > 100 µM
- GI50 [44]: > 100 µM
- TGI [44]: > 100 µM
- GI50 [45]: > 100 µM
- TGI [45]: > 100 µM
- GI50 [46]: > 100 µM
- TGI [46]: > 100 µM
- GI50 [47]: > 100 µM
- TGI [47]: > 100 µM
- GI50 [48]: > 100 µM
- TGI [48]: > 100 µM
- GI50 [49]: > 100 µM
- TGI [49]: > 100 µM
- GI50 [50]: > 100 µM
- TGI [50]: > 100 µM
- GI50 [51]: > 100 µM
- TGI [51]: > 100 µM
- GI50 [52]: > 100 µM
- TGI [52]: > 100 µM
- GI50 [53]: > 100 µM
- TGI [53]: > 100 µM
- GI50 [54]: > 100 µM
- TGI [54]: > 100 µM
- GI50 [55]: > 100 µM
- TGI [55]: > 100 µM
- GI50 [56]: > 100 µM
- TGI [56]: > 100 µM
- GI50 [57]: > 100 µM
- TGI [57]: > 100 µM
- GI50 [58]: > 100 µM
- TGI [58]: > 100 µM

SMILES: CCCCCCCC(=O)SCC/C=C/[C@@H]1CC(=O)NCc2cccc(n2)CN(Cc2ccc3ccccc3c2)CC(=O)N[C@@H](C(C)C)C(=O)O1
- GI50 [1]: 27.9 µM
- TGI [1]: > 100 µM
- GI50 [2]: 45.3 µM
- TGI [2]: > 100 µM
- GI50 [3]: > 100 µM
- TGI [3]: > 100 µM
- GI50 [4]: > 100 µM
- TGI [4]: > 100 µM
- GI50 [5]: 35.1 µM
- TGI [5]: > 100 µM
- GI50 [6]: 32.2 µM
- TGI [6]: > 100 µM
- GI50 [7]: 42.2 µM
- TGI [7]: > 100 µM
- GI50 [8]: 44.3 µM
- TGI [8]: > 100 µM
- GI50 [9]: 88.9 µM
- TGI [9]: > 100 µM
- GI50 [10]: 84.3 µM
- TGI [10]: > 100 µM
- GI50 [11]: 36.2 µM
- TGI [11]: > 100 µM
- GI50 [12]: 98.2 µM
- TGI [12]: > 100 µM
- GI50 [13]: > 100 µM
- TGI [13]: > 100 µM
- GI50 [14]: 61.6 µM
- TGI [14]: > 100 µM
- GI50 [15]: 47 µM
- TGI [15]: > 100 µM
- GI50 [16]: > 100 µM
- TGI [16]: > 100 µM
- GI50 [17]: 48 µM
- TGI [17]: > 100 µM
- GI50 [18]: > 100 µM
- TGI [18]: > 100 µM
- GI50 [19]: 22.9 µM
- TGI [19]: > 100 µM
- GI50 [20]: > 100 µM
- TGI [20]: > 100 µM
- GI50 [21]: 46.4 µM
- TGI [21]: > 100 µM
- GI50 [22]: > 100 µM
- TGI [22]: > 100 µM
- GI50 [23]: 92.4 µM
- TGI [23]: > 100 µM
- GI50 [24]: 44.4 µM
- TGI [24]: > 100 µM
- GI50 [25]: 41.4 µM
- TGI [25]: > 100 µM
- GI50 [26]: > 100 µM
- TGI [26]: > 100 µM
- GI50 [27]: 87 µM
- TGI [27]: > 100 µM
- GI50 [28]: > 100 µM
- TGI [28]: > 100 µM
- GI50 [29]: 93.8 µM
- TGI [29]: > 100 µM
- GI50 [30]: 42.3 µM
- TGI [30]: > 100 µM
- GI50 [31]: > 100 µM
- TGI [31]: > 100 µM
- GI50 [32]: 89.3 µM
- TGI [32]: > 100 µM
- GI50 [33]: 46 µM
- TGI [33]: > 100 µM
- GI50 [34]: 59.4 µM
- TGI [34]: > 100 µM
- GI50 [35]: 23.8 µM
- TGI [35]: > 100 µM
- GI50 [36]: > 100 µM
- TGI [36]: > 100 µM
- GI50 [37]: 50 µM
- TGI [37]: > 100 µM
- GI50 [38]: 74.3 µM
- TGI [38]: > 100 µM
- GI50 [39]: 40 µM
- TGI [39]: > 100 µM
- GI50 [40]: 39.2 µM
- TGI [40]: > 100 µM
- GI50 [41]: 51.6 µM
- TGI [41]: > 100 µM
- GI50 [42]: 62.4 µM
- TGI [42]: > 100 µM
- GI50 [43]: 56.2 µM
- TGI [43]: > 100 µM
- GI50 [44]: 26.5 µM
- TGI [44]: > 100 µM
- GI50 [45]: > 100 µM
- TGI [45]: > 100 µM
- GI50 [46]: > 100 µM
- TGI [46]: > 100 µM
- GI50 [47]: 43.9 µM
- TGI [47]: > 100 µM
- GI50 [48]: 29.5 µM
- TGI [48]: 88.3 µM
- GI50 [49]: 18.2 µM
- TGI [49]: > 100 µM
- GI50 [50]: 30.9 µM
- TGI [50]: > 100 µM
- GI50 [51]: 41.4 µM
- TGI [51]: > 100 µM
- GI50 [52]: 39.7 µM
- TGI [52]: > 100 µM
- GI50 [53]: 94.1 µM
- TGI [53]: > 100 µM
- GI50 [54]: > 100 µM
- TGI [54]: > 100 µM
- GI50 [55]: 40 µM
- TGI [55]: > 100 µM
- GI50 [56]: > 100 µM
- TGI [56]: > 100 µM
- GI50 [57]: 37.9 µM
- TGI [57]: > 100 µM
- GI50 [58]: > 100 µM
- TGI [58]: > 100 µM
